biological target: GCN2 (Homo sapiens (Human), UniProt Q9P2K8); assay: GCN2 Biochemical Assay (TR-FRET, GFP-eIF2S1 substrate phosphorylation); conditions: read-out: IC50 (GCN2 Inhibitory Activity)
In short: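 TR-FRET readout (Ex 340, Em 490/520 nm) after 2–3 h with Tb-labelled phospho-eIF2S1 antibody in stop mix, following a 70 min room-temperature kinase step. Reaction: in-house GCN2, GFP-eIF2S1, ATP, tRNA in Tris pH 7.5 (2× stocks 1.6 nM, 50 nM, 0.2 mM); compounds tested at 10 concentrations, with a phospho-substrate artifact counter-plate.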

Chain of GCN2 (Q9P2K8 whole entry): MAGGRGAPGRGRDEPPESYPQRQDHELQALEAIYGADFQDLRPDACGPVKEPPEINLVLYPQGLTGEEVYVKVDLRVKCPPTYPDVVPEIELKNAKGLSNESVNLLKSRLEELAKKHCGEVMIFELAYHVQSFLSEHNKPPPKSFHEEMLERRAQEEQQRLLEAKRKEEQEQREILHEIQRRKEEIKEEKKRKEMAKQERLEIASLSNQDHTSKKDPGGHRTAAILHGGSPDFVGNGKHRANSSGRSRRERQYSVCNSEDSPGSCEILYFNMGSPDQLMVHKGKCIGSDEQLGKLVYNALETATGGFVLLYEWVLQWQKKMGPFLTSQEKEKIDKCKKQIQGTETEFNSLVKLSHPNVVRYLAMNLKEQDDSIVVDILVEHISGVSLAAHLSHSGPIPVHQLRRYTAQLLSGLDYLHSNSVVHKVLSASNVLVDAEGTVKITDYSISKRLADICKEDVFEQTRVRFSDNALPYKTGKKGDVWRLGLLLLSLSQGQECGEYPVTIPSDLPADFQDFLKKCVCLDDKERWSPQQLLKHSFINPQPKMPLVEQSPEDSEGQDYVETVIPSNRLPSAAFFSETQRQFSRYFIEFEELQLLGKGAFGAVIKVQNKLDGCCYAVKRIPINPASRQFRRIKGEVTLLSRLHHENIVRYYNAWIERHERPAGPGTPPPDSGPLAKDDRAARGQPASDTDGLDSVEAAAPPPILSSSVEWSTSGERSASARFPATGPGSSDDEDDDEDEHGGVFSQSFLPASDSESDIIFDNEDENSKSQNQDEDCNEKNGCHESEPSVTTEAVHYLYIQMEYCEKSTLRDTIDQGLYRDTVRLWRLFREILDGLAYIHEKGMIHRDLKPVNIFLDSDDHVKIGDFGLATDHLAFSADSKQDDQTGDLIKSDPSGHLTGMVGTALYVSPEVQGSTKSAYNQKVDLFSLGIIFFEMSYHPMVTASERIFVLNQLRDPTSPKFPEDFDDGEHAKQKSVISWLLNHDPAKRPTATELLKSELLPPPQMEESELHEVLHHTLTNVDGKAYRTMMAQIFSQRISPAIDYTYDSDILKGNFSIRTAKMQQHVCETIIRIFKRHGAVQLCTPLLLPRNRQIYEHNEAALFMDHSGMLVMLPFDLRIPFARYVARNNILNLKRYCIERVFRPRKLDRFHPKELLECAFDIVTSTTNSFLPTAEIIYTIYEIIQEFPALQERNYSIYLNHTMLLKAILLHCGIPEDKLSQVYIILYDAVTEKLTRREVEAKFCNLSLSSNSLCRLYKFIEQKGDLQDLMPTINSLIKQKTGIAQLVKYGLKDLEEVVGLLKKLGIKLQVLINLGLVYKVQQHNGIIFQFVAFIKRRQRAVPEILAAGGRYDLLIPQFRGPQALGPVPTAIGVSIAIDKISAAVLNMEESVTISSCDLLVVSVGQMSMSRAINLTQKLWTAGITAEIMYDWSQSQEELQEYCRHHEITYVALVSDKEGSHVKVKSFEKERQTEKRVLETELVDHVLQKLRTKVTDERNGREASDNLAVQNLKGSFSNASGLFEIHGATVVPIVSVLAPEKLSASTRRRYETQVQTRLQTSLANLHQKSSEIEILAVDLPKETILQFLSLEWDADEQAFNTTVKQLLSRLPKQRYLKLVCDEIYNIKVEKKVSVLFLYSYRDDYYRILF

Compound	IC50
Cc1cnc(Nc2cc(C)n(C)n2)nc1-c1c[nH]c2c(NC(=O)CN3CC[C@H](Oc4ccnc(N5CCCC5)n4)C3)cccc12 [Example 222, (S)-N-(3-(2-((1,5-dimethyl-1H-pyrazol-3-yl)amino)-5-methylpyrimidin-4-yl)-1H-indol-7-yl)-2-(3-((2-(pyrrolidin-t-yl)pyrimidin-4-yl)oxy)pyrrolidin-1-yl)acetamide]	10 to 100 nM
Cc1cnc(Nc2cc(C)n(C)n2)nc1-c1c[nH]c2c(NC(=O)CN3CC[C@H](Oc4ccnc(N5CCCCC5)n4)C3)cccc12 [Example 223, (S)-N-(3-(2-((1,5-dimethyl-1H-pyrazol-3-yl)amino)-5-methylpyrimidin-4-yl)-1H-indol-7-yl)-2-(3-((2-(piperidin-1-yl)pyrimidin-4-yl)oxy)pyrrolidin-1-yl)acetamide]	10 to 100 nM
Cc1cnc(Nc2cc(C)n(C)n2)nc1-c1c[nH]c2c(NC(=O)CN3CC[C@H](Oc4ccnc(N5CCOCC5)n4)C3)cccc12 [Example 224, (S)-N-(3-(2-((1,5-dimethyl-1H-pyrazol-3-yl)amino)-5-methylpyrimidin-4-yl)-1H-indol-7-yl)-2-(3-((2-morpholinopyrimidin-4-yl)oxy)pyrrolidin-1-yl)acetamide]	< 10 nM
Cc1cnc(Nc2cc(C)n(C)n2)nc1-c1c[nH]c2c(NC(=O)CN3CC[C@H](Oc4ccnc(N5CCN(C)CC5)n4)C3)cccc12 [Example 225, (S)-N-(3-(2-((1,5-dimethyl-1H-pyrazol-3-yl)amino)-5-methylpyrimidin-4-yl)-1H-indol-7-yl)-2-(3-((2-(4-methylpiperazin-1-yl)pyrimidin-4-yl)oxy)pyrrolidin-1-yl)acetamide]	< 10 nM
Cc1cnc(Nc2cc(C)n(C)n2)nc1-c1c[nH]c2c(NC(=O)CN3CC[C@H](Oc4nc(N)ncc4F)C3)cccc12 [Example 226, (S)-2-(3-((2-amino-5-fluoropyrimidin-4-yl)oxy)pyrrolidin-1-yl)-N-(3-(2-((1,5-dimethyl-1H-pyrazol-3-yl)amino)-5-methylpyrimidin-4-yl)-1H-indol-7-yl)acetamide]	< 10 nM
Cc1cnc(Nc2cc(C)n(C)n2)nc1-c1c[nH]c2c(NC(=O)CN3CC[C@H](Oc4nc(NC5CC5)ncc4F)C3)cccc12 [Example 227, (S)-2-(3-((2-(cyclopropylamino)-5-fluoropyrimidin-4-yl)oxy)pyrrolidin-1-yl)-N-(3-(2-((1,5-dimethyl-1H-pyrazol-3-yl)amino)-5-methylpyrimidin-4-yl)-1H-indol-7-yl)acetamide]	< 10 nM
Cc1cnc(Nc2cc(C)n(C)n2)nc1-c1c[nH]c2c(NC(=O)CN3CC[C@H](Oc4nc(NC5CCCCC5)ncc4F)C3)cccc12 [Example 228, (S)-2-(3-((2-(cyclohexylamino)-5-fluoropyrimidin-4-yl)oxy)pyrrolidin-1-yl)-N-(3-(2-((1,5-dimethyl-1H-pyrazol-3-yl)amino)-5-methylpyrimidin-4-yl)-1H-indol-7-yl)acetamide]	10 to 100 nM
Cc1cnc(Nc2cc(C)n(C)n2)nc1-c1c[nH]c2c(NC(=O)CN3CC[C@H](Oc4nc(NCC5CC5)ncc4F)C3)cccc12 [Example 229, (S)-2-(3-((2-((cyclopropylmethyl)amino)-5-fluoropyrimidin-4-yl)oxy)pyrrolidin-1-yl)-N-(3-(2-((1,5-dimethyl-1H-pyrazol-3-yl)amino)-5-methylpyrimidin-4-yl)-1H-indol-7-yl)acetamide]	10 to 100 nM
Cc1cnc(Nc2cc(C)n(C)n2)nc1-c1c[nH]c2c(NC(=O)CN3CC[C@H](Oc4nc(NCc5ccccc5)ncc4F)C3)cccc12 [Example 230, (S)-2-(3-((2-(benzylamino)-5-fluoropyrimidin-4-yl)oxy)pyrrolidin-1-yl)-N-(3-(2-((1,5-dimethyl-1H-pyrazol-3-yl)amino)-5-methylpyrimidin-4-yl)-1H-indol-7-yl)acetamide]	10 to 100 nM

The next lines start with the values.

IC50	Compound
10 to 100 nM	Cc1cnc(Nc2cc(C)n(C)n2)nc1-c1c[nH]c2c(NC(=O)CN3CC[C@H](Oc4nc(N(C)C)ncc4F)C3)cccc12 [Example 231, (S)-N-(3-(2-((1,5-dimethyl-1H-pyrazol-3-yl)amino)-5-methylpyrimidin-4-yl)-1H-indol-7-yl)-2-(3-((2-(dimethylamino)-5-fluoropyrimidin-4-yl)oxy)pyrrolidin-1-yl)acetamide]
< 10 nM	Cc1cnc(Nc2cc(C)n(C)n2)nc1-c1c[nH]c2c(NC(=O)CN3CC[C@H](Oc4nc(N5CCOCC5)ncc4F)C3)cccc12 [Example 232, (S)-N-(3-(2-((1,5-dimethyl-1H-pyrazol-3-yl)amino)-5-methylpyrimidin-4-yl)-1H-indol-7-yl)-2-(3-((5-fluoro-2-morpholinopyrimidin-4-yl)oxy)pyrrolidin-1-yl)acetamide]
< 10 nM	Cc1cnc(Nc2cc(C)n(C)n2)nc1-c1c[nH]c2c(NC(=O)CN3CC[C@H](Oc4nc(N5CCN(C)CC5)ncc4F)C3)cccc12 [Example 233, (S)-N-(3-(2-((1,5-dimethyl-1H-pyrazol-3-yl)amino)-5-methylpyrimidin-4-yl)-1H-indol-7-yl)-2-(3-((5-fluoro-2-(4-methylpiperazin-1-yl)pyrimidin-4-yl)oxy)pyrrolidin-1-yl)acetamide]
< 10 nM	Cc1cnc(Nc2cc(C)n(C)n2)nc1-c1c[nH]c2c(NC(=O)CN3CC[C@H](Oc4cc(F)nc(NC5CC5)n4)C3)cccc12 [Example 234, (S)-2-(3-((2-(cyclopropylamino)-6-fluoropyrimidin-4-yl)oxy)pyrrolidin-1-yl)-N-(3-(2-((1,5-dimethyl-1H-pyrazol-3-yl)amino)-5-methylpyrimidin-4-yl)-1H-indol-7-yl)acetamide]
10 to 100 nM	Cc1cnc(NC2CC2)nc1O[C@H]1CCN(CC(=O)Nc2cccc3c(-c4nc(Nc5cc(C)n(C)n5)ncc4C)c[nH]c23)C1 [Example 235, (S)-2-(3-((2-(cyclopropylamino)-5-methylpyrimidin-4-yl)oxy)pyrrolidin-1-yl)-N-(3-(2-((1,5-dimethyl-1H-pyrazol-3-yl)amino)-5-methylpyrimidin-4-yl)-1H-indol-7-yl)acetamide]
< 10 nM	Cc1cc(O[C@H]2CCN(CC(=O)Nc3cccc4c(-c5nc(Nc6cc(C)n(C)n6)ncc5C)c[nH]c34)C2)nc(NC2CC2)n1 [Example 236, (S)-2-(3-((2-(cyclopropylamino)-6-methylpyrimidin-4-yl)oxy)pyrrolidin-1-yl)-N-(3-(2-((1,5-dimethyl-1H-pyrazol-3-yl)amino)-5-methylpyrimidin-4-yl)-1H-indol-7-yl)acetamide]
10 to 100 nM	Cc1cnc(Nc2cc(C)n(C)n2)nc1-c1c[nH]c2c(NC(=O)CN3CC[C@H](Oc4cc(C(F)(F)F)nc(NC5CC5)n4)C3)cccc12 [Example 237, (S)-2-(3-((2-(cyclopropylamino)-6-(trifluoromethyl)pyrimidin-4-yl)oxy)pyrrolidin-1-yl)-N-(3-(2-((1,5-dimethyl-1H-pyrazol-3-yl)amino)-5-methylpyrimidin-4-yl)-1H-indol-7-yl)acetamide]
< 10 nM	COc1cc(O[C@H]2CCN(CC(=O)Nc3cccc4c(-c5nc(Nc6cc(C)n(C)n6)ncc5C)c[nH]c34)C2)nc(NC2CC2)n1 [Example 238, (S)-2-(3-((2-(cyclopropylamino)-6-methoxypyrimidin-4-yl)oxy)pyrrolidin-1-yl)-N-(3-(2-((1,5-dimethyl-1H-pyrazol-3-yl)amino)-5-methylpyrimidin-4-yl)-1H-indol-7-yl)acetamide]
10 to 100 nM	Cc1cnc(Nc2cc(C)n(C)n2)nc1-c1c[nH]c2c(NC(=O)CN3CC[C@H](Oc4cnc(NCCN(C)C)nc4)C3)cccc12 [Example 239, (S)-N-(3-(2-((1,5-dimethyl-1H-pyrazol-3-yl)amino)-5-methylpyrimidin-4-yl)-1H-indol-7-yl)-2-(3-((2-((2-(dimethylamino)ethyl)amino)pyrimidin-5-yl)oxy)pyrrolidin-1-yl)acetamide]
10 to 100 nM	Cc1cnc(Nc2cc(C)n(C)n2)nc1-c1c[nH]c2c(NC(=O)CN3CC[C@H](Oc4cnc(N(C)C)nc4)C3)cccc12 [Example 240, (S)-N-(3-(2-((1,5-dimethyl-1H-pyrazol-3-yl)amino)-5-methylpyrimidin-4-yl)-1H-indol-7-yl)-2-(3-((2-(dimethylamino)pyrimidin-5-yl)oxy)pyrrolidin-1-yl)acetamide]
10 to 100 nM	Cc1cnc(Nc2cc(C)n(C)n2)nc1-c1c[nH]c2c(NC(=O)CN3CC[C@H](Oc4cnc(N5CCOCC5)nc4)C3)cccc12 [Example 241, (S)-N-(3-(2-((1,5-dimethyl-1H-pyrazol-3-yl)amino)-5-methylpyrimidin-4-yl)-1H-indol-7-yl)-2-(3-((2-morpholinopyrimidin-5-yl)oxy)pyrrolidin-1-yl)acetamide]
10 to 100 nM	Cc1cnc(Nc2cc(C)n(C)n2)nc1-c1c[nH]c2c(NC(=O)CN3CC[C@H](Oc4cnc(N5CCN(C)CC5)nc4)C3)cccc12 [Example 242, (S)-N-(3-(2-((1,5-dimethyl-1H-pyrazol-3-yl)amino)-5-methylpyrimidin-4-yl)-1H-indol-7-yl)-2-(3-((2-(4-methylpiperazin-1-yl)pyrimidin-5-yl)oxy)pyrrolidin-1-yl)acetamide]
10 to 100 nM	Cc1cnc(Nc2cc(C)n(C)n2)nc1-c1c[nH]c2c(NC(=O)CN3CC[C@H](Oc4cncc(NC5CC5)n4)C3)cccc12 [Example 243, (S)-2-(3-((6-(cyclopropylamino)pyrazin-2-yl)oxy)pyrrolidin-1-yl)-N-(3-(2-((1,5-dimethyl-1H-pyrazol-3-yl)amino)-5-methylpyrimidin-4-yl)-1H-indol-7-yl)acetamide]
10 to 100 nM	CCNc1cncc(O[C@H]2CCN(CC(=O)Nc3cccc4c(-c5nc(Nc6cc(C)n(C)n6)ncc5C)c[nH]c34)C2)n1 [Example 244, (S)-N-(3-(2-((1,5-dimethyl-1H-pyrazol-3-yl)amino)-5-methylpyrimidin-4-yl)-1H-indol-7-yl)-2-(3-((6-(ethylamino)pyrazin-2-yl)oxy)pyrrolidin-1-yl)acetamide]

— patent US20240025884A1 (Dong-A ST Co., Ltd., priority 2022, published 2024)
